Experimental data reported in US10040781B2, “Tank-binding kinase inhibitor compounds” (Gilead Sciences, Inc., priority 2014, dated 2018).

Columns and labels:
hJAK2 = hJAK2 (Homo sapiens (Human), UniProt O60674); test: hJAK2 LANCE TR-FRET enzymatic assay; type: biochemical; details: read-out: JAK2 IC50
TBK1 = TBK1 (Homo sapiens (Human), UniProt Q9UHD2); test: TBK1 TR-FRET enzymatic assay;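 also: phosphorylation of a biotinylated Ser/Thr peptide by purified full-length recombinant TBK1, read by TR-FRET after 240 min at 25 °C, IC50 is the geometric mean of at least four runs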
IKKε = IKKε (Homo sapiens (Human), UniProt Q14164); test: IKKε TR-FRET enzymatic assay; type: biochemical; details: read-out: IKKe IC50
Chain of IKKε (Q14164 whole entry): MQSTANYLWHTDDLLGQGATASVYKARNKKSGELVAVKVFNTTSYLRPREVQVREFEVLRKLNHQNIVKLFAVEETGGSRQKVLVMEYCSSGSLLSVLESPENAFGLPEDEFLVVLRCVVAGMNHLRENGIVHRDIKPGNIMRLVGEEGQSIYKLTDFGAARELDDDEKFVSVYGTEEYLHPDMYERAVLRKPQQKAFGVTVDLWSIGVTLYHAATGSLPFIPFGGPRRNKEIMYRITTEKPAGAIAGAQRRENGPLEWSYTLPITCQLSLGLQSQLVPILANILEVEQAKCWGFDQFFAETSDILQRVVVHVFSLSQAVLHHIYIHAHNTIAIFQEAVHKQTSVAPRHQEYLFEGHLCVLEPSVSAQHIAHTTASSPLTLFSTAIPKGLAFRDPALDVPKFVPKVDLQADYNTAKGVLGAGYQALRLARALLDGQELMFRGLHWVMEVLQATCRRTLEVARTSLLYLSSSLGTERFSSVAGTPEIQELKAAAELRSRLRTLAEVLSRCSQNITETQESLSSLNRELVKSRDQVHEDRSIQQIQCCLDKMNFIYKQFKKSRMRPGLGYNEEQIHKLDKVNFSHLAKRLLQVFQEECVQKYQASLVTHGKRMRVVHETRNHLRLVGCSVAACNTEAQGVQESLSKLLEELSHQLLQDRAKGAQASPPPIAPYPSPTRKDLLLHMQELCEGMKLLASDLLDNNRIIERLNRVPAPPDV

Chain of hJAK2 (O60674 whole entry): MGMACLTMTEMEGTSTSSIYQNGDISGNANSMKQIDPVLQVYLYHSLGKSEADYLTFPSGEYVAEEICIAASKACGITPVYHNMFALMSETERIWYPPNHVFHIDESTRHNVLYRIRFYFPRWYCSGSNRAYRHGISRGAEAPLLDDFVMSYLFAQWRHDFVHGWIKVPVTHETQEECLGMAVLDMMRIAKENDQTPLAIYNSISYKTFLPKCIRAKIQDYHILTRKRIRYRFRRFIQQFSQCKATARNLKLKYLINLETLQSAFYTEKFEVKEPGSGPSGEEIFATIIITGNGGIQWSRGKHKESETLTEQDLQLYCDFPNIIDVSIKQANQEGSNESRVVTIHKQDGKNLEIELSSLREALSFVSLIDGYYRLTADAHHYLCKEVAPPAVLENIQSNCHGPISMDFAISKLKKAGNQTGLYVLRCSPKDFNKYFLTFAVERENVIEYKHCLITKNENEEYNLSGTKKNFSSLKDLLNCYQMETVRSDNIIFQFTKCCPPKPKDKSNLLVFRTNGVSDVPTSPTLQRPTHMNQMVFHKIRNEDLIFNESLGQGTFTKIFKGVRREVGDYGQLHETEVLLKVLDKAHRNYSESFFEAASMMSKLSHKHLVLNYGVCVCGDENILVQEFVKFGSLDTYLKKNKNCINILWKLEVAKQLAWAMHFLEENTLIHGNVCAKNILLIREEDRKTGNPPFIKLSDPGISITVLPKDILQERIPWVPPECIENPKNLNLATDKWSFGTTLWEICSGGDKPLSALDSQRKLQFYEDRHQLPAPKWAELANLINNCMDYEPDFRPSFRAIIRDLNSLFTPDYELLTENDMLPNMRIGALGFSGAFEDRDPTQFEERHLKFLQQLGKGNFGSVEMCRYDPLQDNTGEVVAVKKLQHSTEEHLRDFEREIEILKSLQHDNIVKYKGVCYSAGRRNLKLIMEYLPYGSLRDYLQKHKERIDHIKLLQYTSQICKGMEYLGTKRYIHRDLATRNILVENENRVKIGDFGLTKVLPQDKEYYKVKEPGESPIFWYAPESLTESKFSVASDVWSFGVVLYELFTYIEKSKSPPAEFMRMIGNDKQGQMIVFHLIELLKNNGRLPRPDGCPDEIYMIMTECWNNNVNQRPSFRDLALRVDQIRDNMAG
Chain of TBK1 (Q9UHD2 whole entry): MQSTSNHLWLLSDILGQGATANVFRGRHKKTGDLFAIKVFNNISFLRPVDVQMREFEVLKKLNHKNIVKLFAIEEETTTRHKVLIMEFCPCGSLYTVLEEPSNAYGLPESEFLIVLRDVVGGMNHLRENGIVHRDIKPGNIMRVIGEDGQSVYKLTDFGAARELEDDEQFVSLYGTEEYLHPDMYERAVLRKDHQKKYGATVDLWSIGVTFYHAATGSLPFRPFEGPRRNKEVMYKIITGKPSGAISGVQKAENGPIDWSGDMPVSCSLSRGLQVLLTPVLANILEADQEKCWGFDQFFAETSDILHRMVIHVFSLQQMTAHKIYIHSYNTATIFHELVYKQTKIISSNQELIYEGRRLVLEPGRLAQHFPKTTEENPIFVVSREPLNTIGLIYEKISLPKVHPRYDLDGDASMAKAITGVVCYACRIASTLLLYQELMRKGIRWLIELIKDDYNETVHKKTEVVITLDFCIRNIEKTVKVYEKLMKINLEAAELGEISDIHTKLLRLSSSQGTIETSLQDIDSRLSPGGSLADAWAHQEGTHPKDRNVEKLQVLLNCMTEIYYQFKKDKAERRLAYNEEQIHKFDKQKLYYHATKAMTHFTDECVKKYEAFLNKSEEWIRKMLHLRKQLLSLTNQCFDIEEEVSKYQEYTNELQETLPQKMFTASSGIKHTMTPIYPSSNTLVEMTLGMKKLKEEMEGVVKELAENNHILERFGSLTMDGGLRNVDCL

N#Cc1cc(-c2ncnc(Nc3ccc(N4CCN(C5COC5)CC4)c(F)c3)n2)ccc1O[C@H]1CCN(C(=O)[C@@H]2CCC(=O)N2)C[C@H]1F [Example 372, 2-(((3R,4S)-3-fluoro-1-((S)-5-oxopyrrolidine-2-carbonyl)piperidin-4-yl)oxy)-5-(4-((3-fluoro-4-(4-(oxetan-3-yl)piperazin-1-yl)phenyl)amino)-1,3,5-triazin-2-yl)benzonitrile] showed an IC50 (hJAK2) of 305 nM, an IC50 (TBK1) of 4 nM and an IC50 (IKKε) of 5 nM.

N#Cc1cc(-c2ncnc(Nc3ccc(N4CCN(C5COC5)CC4)c(F)c3)n2)ccc1O[C@H]1CCN(C(=O)c2cnn[nH]2)C[C@H]1F [Example 373, 2-(((3R,4S)-3-fluoro-1-(1H-1,2,3-triazole-5-carbonyl)piperidin-4-yl)oxy)-5-(4-((3-fluoro-4-(4-(oxetan-3-yl)piperazin-1-yl)phenyl)amino)-1,3,5-triazin-2-yl)benzonitrile] gave an IC50 (hJAK2) of 146 nM, an IC50 (TBK1) of 2 nM and an IC50 (IKKε) of 1 nM.

With N#Cc1cc(-c2ncnc(Nc3ccc(N4CCN(C5COC5)CC4)cc3F)n2)ccc1O[C@H]1CCN(C(=O)[C@@H]2CCC(=O)N2)C[C@H]1F [Example 374, 2-(((3R,4S)-3-fluoro-1-((S)-5-oxopyrrolidine-2-carbonyl)piperidin-4-yl)oxy)-5-(4-((2-fluoro-4-(4-(oxetan-3-yl)piperazin-1-yl)phenyl)amino)-1,3,5-triazin-2-yl)benzonitrile] the IC50 (hJAK2) was ≥ 1000 nM, the IC50 (TBK1) was 1000 nM and the IC50 (IKKε) was ≥ 1000 nM.

For C[C@H](O)C(=O)N1CC[C@H](Oc2ccc(-c3ncnc(Nc4ccc(N5CCN(C6COC6)CC5)cc4F)n3)cc2C#N)[C@H](F)C1 [Example 375, 2-(((3R,4S)-3-fluoro-1-((S)-2-hydroxypropanoyl)piperidin-4-yl)oxy)-5-(4-((2-fluoro-4-(4-(oxetan-3-yl)piperazin-1-yl)phenyl)amino)-1,3,5-triazin-2-yl)benzonitrile], the IC50 (hJAK2) was ≥ 1000 nM, the IC50 (TBK1) was 1000 nM and the IC50 (IKKε) was ≥ 1000 nM.

N#Cc1cc(-c2ncnc(Nc3ccc(N4CCN(C5COC5)CC4)cc3)n2)ccc1O[C@H]1CCN(C(=O)c2cn(CCO)nn2)C[C@H]1F [Example 376] was tested, and the IC50 (hJAK2) was 127 nM, the IC50 (TBK1) was 5 nM and the IC50 (IKKε) was 3 nM.

In the case of C[C@H](O)C(=O)N1CC[C@H](Oc2ccc(-c3ncnc(Nc4ccc(N5CCN(C6COC6)CC5)nc4)n3)cc2C#N)[C@H](F)C1 [Example 379, 2-(((3R,4S)-3-fluoro-1-((S)-2-hydroxypropanoyl)piperidin-4-yl)oxy)-5-(4-((6-(4-(oxetan-3-yl)piperazin-1-yl)pyridin-3-yl)amino)-1,3,5-triazin-2-yl)benzonitrile], the IC50 (hJAK2) is reported as ≥ 1000 nM, the IC50 (TBK1) is reported as 5 nM and the IC50 (IKKε) is reported as 3 nM.

For CCOC(=O)c1cccc(Nc2ncnc(-c3ccc(O[C@H]4CCN(C(=O)[C@H](C)O)C[C@H]4F)c(C#N)c3)n2)c1 [Example 380, Ethyl 3-((4-(3-cyano-4-(((3R,4S)-3-fluoro-1-((S)-2-hydroxypropanoyl)piperidin-4-yl)oxy)phenyl)-1,3,5-triazin-2-yl)amino)benzoate], the IC50 (hJAK2) was 891 nM, the IC50 (TBK1) was 6 nM and the IC50 (IKKε) was 8 nM.

C[C@H](O)C(=O)N1CC[C@H](Oc2ccc(-c3ncnc(Nc4ccc(C(C)(C)O)nc4)n3)cc2C#N)[C@H](F)C1 [Example 382, 2-(((3R,4S)-3-fluoro-1-((S)-2-hydroxypropanoyl)piperidin-4-yl)oxy)-5-(4-((6-(2-hydroxypropan-2-yl)pyridin-3-yl)amino)-1,3,5-triazin-2-yl)benzonitrile] was tested, and the IC50 (hJAK2) was ≥ 1000 nM, the IC50 (TBK1) was 3 nM and the IC50 (IKKε) was 3 nM.

Molecule C[C@H](O)C(=O)N1CC[C@H](Oc2ccc(-c3ncnc(Nc4ccc(N5CCOC[C@H]5CO)cc4)n3)cc2C#N)[C@H](F)C1 [Example 383, 2-(((3R,4S)-3-fluoro-1-((S)-2-hydroxypropanoyl)piperidin-4-yl)oxy)-5-(4-((4-((R)-3-(hydroxymethyl)morpholino)phenyl)amino)-1,3,5-triazin-2-yl)benzonitrile] has an IC50 (hJAK2) of 568 nM, an IC50 (TBK1) of 2 nM and an IC50 (IKKε) of 1 nM.

N#Cc1cc(-c2ncnc(Nc3ccc(N4CCOC[C@H]4CO)cc3)n2)ccc1O[C@H]1CCN(C(=O)CO)C[C@H]1F [Example 384, 2-(((3R,4S)-3-fluoro-1-(2-hydroxyacetyl)piperidin-4-yl)oxy)-5-(4-((4-((R)-3-(hydroxymethyl)morpholino)phenyl)amino)-1,3,5-triazin-2-yl)benzonitrile] was tested, and the IC50 (hJAK2) was 189 nM, the IC50 (TBK1) was 2 nM and the IC50 (IKKε) was 1 nM.

For C[C@H](O)C(=O)N1CC[C@H](Oc2ccc(-c3ncnc(Nc4ccc5c(c4)NC(=O)C5(C)C)n3)cc2C#N)[C@H](F)C1 [Example 385, 5-(4-((3,3-dimethyl-2-oxoindolin-6-yl)amino)-1,3,5-triazin-2-yl)-2-(((3R,4S)-3-fluoro-1-((8)-2-hydroxypropanoyl)piperidin-4-yl)oxy)benzonitrile], the IC50 (hJAK2) was 888 nM, the IC50 (TBK1) was 2 nM and the IC50 (IKKε) was 3 nM.

C[C@H](O)C(=O)N1CC[C@H](Oc2ccc(-c3ncnc(Nc4ccnc(C(C)(C)O)c4)n3)cc2C#N)[C@H](F)C1 [Example 386, 2-(((3R,4S)-3-fluoro-1-((S)-2-hydroxypropanoyl)piperidin-4-yl)oxy)-5-(4-((2-(2-hydroxypropan-2-yl)pyridin-4-yl)amino)-1,3,5-triazin-2-yl)benzonitrile] was tested, and the IC50 (hJAK2) was ≥ 1000 nM, the IC50 (TBK1) was 4 nM and the IC50 (IKKε) was 6 nM.

CC(C)(O)c1ccc(Nc2ncnc(-c3ccc(O[C@H]4CCN(C(=O)CO)C[C@H]4F)c(C#N)c3)n2)cn1 [Example 388, 2-(((3R,4S)-3-fluoro-1-(2-hydroxyacetyl)piperidin-4-yl)oxy)-5-(4-((6-(2-hydroxypropan-2-yl)pyridin-3-yl)amino)-1,3,5-triazin-2-yl)benzonitrile] was tested, and the IC50 (hJAK2) was ≥ 1000 nM, the IC50 (TBK1) was 6 nM and the IC50 (IKKε) was 4 nM.

COc1cc(Nc2ncnc(-c3ccc(O[C@H]4CCN(C(=O)[C@H](C)O)C[C@H]4F)c(C#N)c3)n2)ccc1N1CCN(C2COC2)CC1 [Example 389, 2-(((3R,4S)-3-fluoro-1-((S)-2-hydroxypropanoyl)piperidin-4-yl)oxy)-5-(4-((3-methoxy-4-(4-(oxetan-3-yl)piperazin-1-yl)phenyl)amino)-1,3,5-triazin-2-yl)benzonitrile] showed an IC50 (hJAK2) of 55 nM, an IC50 (TBK1) of 2 nM and an IC50 (IKKε) of 1 nM.

N#Cc1cc(-c2ncnc(Nc3ccc(N4CCN(C5COC5)CC4)cc3)n2)ccc1O[C@H]1CCN(C(=O)c2ccncc2N)C[C@H]1F [Example 390, 2-(((3R,4S)-1-(3-aminoisonicotinoyl)-3-fluoropiperidin-4-yl)oxy)-5-(4-((4-(4-(oxetan-3-yl)piperazin-1-yl)phenyl)amino)-1,3,5-triazin-2-yl)benzonitrile] showed an IC50 (hJAK2) of 37 nM, an IC50 (TBK1) of 65 nM and an IC50 (IKKε) of 165 nM.

With N#Cc1cc(-c2ncnc(Nc3ccc(N4CCN(C5COC5)CC4)cc3)n2)ccc1O[C@H]1CCN(C(=O)c2[nH]ncc2N)C[C@H]1F [Example 391, 2-(((3R,4S)-1-(4-amino-1H-pyrazole-5-carbonyl)-3-fluoropiperidin-4-yl)oxy)-5-(4-((4-(4-(oxetan-3-yl)piperazin-1-yl)phenyl)amino)-1,3,5-triazin-2-yl)benzonitrile] the IC50 (hJAK2) was 122 nM, the IC50 (TBK1) was 6 nM and the IC50 (IKKε) was 9 nM.

In the case of COc1cc(Nc2ncnc(-c3ccc(O[C@H]4CCN(C(=O)CO)C[C@H]4F)c(C#N)c3)n2)ccc1N1CCN(C2COC2)CC1 [Example 392, 2-(((3R,4S)-3-fluoro-1-(2-hydroxyacetyl)piperidin-4-yl)oxy)-5-(4-((3-methoxy-4-(4-(oxetan-3-yl)piperazin-1-yl)phenyl)amino)-1,3,5-triazin-2-yl)benzonitrile], the IC50 (hJAK2) is reported as 26 nM, the IC50 (TBK1) is reported as 5 nM and the IC50 (IKKε) is reported as 1 nM.

N#Cc1cc(-c2ncnc(Nc3ccc(N4CCN(C5COC5)CC4)c(OC(F)F)c3)n2)ccc1O[C@H]1CCN(C(=O)CO)C[C@H]1F [Example 393, 5-(4-((3-(difluoromethoxy)-4-(4-(oxetan-3-yl)piperazin-1-yl)phenyl)amino)-1,3,5-triazin-2-yl)-2-(((3R,4S)-3-fluoro-1-(2-hydroxyacetyl)piperidin-4-yl)oxy)benzonitrile] gave an IC50 (hJAK2) of 29 nM, an IC50 (TBK1) of 3 nM and an IC50 (IKKε) of 1 nM.

In the case of Cc1cc(Nc2ncnc(-c3ccc(O[C@H]4CCN(C(=O)CO)C[C@H]4F)c(C#N)c3)n2)ccc1N1CCN(C2COC2)CC1 [Example 394, 2-(((3R,4S)-3-fluoro-1-(2-hydroxyacetyl)piperidin-4-yl)oxy)-5-(4-((3-methyl-4-(4-(oxetan-3-yl)piperazin-1-yl)phenyl)amino)-1,3,5-triazin-2-yl)benzonitrile], the IC50 (hJAK2) is reported as 64 nM, the IC50 (TBK1) is reported as 2 nM and the IC50 (IKKε) is reported as 1 nM.

For C[C@H](O)C(=O)N1CC[C@H](Oc2ccc(-c3ncnc(Nc4ccc(N5CCN(C6COC6)CC5)c(OC(F)F)c4)n3)cc2C#N)[C@H](F)C1 [Example 395, 5-(4-((3-(difluoromethoxy)-4-(4-(oxetan-3-yl)piperazin-1-yl)phenyl)amino)-1,3,5-triazin-2-yl)-2-(((3R,4S)-3-fluoro-1-((S)-2-hydroxypropanoyl)piperidin-4-yl)oxy)benzonitrile], the IC50 (hJAK2) was 119 nM, the IC50 (TBK1) was 2 nM and the IC50 (IKKε) was 1 nM.

In the case of Cc1cc(Nc2ncnc(-c3ccc(O[C@H]4CCN(C(=O)[C@H](C)O)C[C@H]4F)c(C#N)c3)n2)ccc1N1CCN(C2COC2)CC1 [Example 396, 2-(((3R,4S)-3-fluoro-1-((S)-2-hydroxypropanoyl)piperidin-4-yl)oxy)-5-(4-((3-methyl-4-(4-(oxetan-3-yl)piperazin-1-yl)phenyl)amino)-1,3,5-triazin-2-yl)benzonitrile], the IC50 (hJAK2) is reported as 137 nM, the IC50 (TBK1) is reported as 2 nM and the IC50 (IKKε) is reported as 1 nM.

Work on CC(C)(O)c1cc(Nc2ncnc(-c3ccc(O[C@H]4CCN(C(=O)CO)C[C@H]4F)c(C#N)c3)n2)ccn1 [Example 397, 2-(((3R,4S)-3-fluoro-1-(2-hydroxyacetyl)piperidin-4-yl)oxy)-5-(4-((2-(2-hydroxypropan-2-yl)pyridin-4-yl)amino)-1,3,5-triazin-2-yl)benzonitrile] yielded an IC50 (hJAK2) of 960 nM, an IC50 (TBK1) of 2 nM and an IC50 (IKKε) of 2 nM.
